The values below are quoted from earlier work in US20190321435A1, “ACORUS GRAMINEUS AS A PHARMACOLOGICALLY ACTIVE NATURAL TREATMENT IN THE ADDICTION OF NICOTINE” (priority 2018, published 2019).

For data set [1], the system named is intravenous self-administration (IVSA) of nicotine. The settings on record: rodents; high-dose (Rauhut et al., 2003); cited from earlier work.
For data set [2] the following is noted: cited from earlier work.

Take `CC(NC(C)(C)C)C(=O)c1cccc(Cl)c1` (stereo not drawn) [bupropion]: the self-administration of nicotine entry in data set [1] is recorded as “reduce self-administration of nicotine”.

For the molecule `CN1CCc2cccc3c2[C@H]1Cc1ccc(O)c(O)c1-3` [apomorphine], in data set [2] (administered intravenously), the “adverse effect of intravenous administration” value was “crystallization of the drug and lead to thrombus formation and pulmonary embolism”. In data set [2] (oral administration (swallowing)), the first-pass hepatic metabolism entry is reported as “significant first-pass hepatic metabolism”.
